Results taken from PubChem BioAssay (NCI).
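Test compounds were applied to cells in 96-well plates for 48 hours at 5 doses. GI50 marks 50% less growth. The concentration for full growth arrest is given as TGI.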

Tests used:
Experiment in all cases: inhibition of tumour cell growth, NCI panel, 48 h
[1] = tested on: 786-0 renal
[2] = tested on: A549 NSCLC
[3] = tested on: ACHN renal
[4] = tested on: CAKI-1 renal
[5] = tested on: CCRF-CEM leukemia
[6] = tested on: COLO 205 colon
[7] = tested on: DU-145 prostate
[8] = tested on: EKVX NSCLC
[9] = tested on: HCC-2998 colon
[10] = tested on: HCT-116 colon
[11] = tested on: HCT-15 colon
[12] = tested on: HOP-62 NSCLC
[13] = tested on: HOP-92 NSCLC
[14] = tested on: HS 578T breast
[15] = tested on: HT29 colon
[16] = tested on: K-562 leukemia
[17] = tested on: KM12 colon
[18] = tested on: LOX IMVI melanoma
[19] = tested on: M14 melanoma
[20] = tested on: MALME-3M melanoma
[21] = tested on: MCF7 breast
[22] = tested on: MDA-MB-231 breast
[23] = tested on: MDA-MB-435
[24] = tested on: NCI-H226 lung
[25] = tested on: NCI-H23 lung
[26] = tested on: NCI-H460 lung
[27] = tested on: NCI-H522 lung
[28] = tested on: NCI/ADR-RES ovarian
[29] = tested on: OVCAR-3 ovarian
[30] = tested on: OVCAR-4 ovarian
[31] = tested on: OVCAR-5 ovarian
[32] = tested on: OVCAR-8 ovarian
[33] = tested on: PC-3 prostate
[34] = tested on: RPMI-8226 leukemia
[35] = tested on: SF-268 CNS
[36] = tested on: SF-295 CNS
[37] = tested on: SK-MEL-28 melanoma
[38] = tested on: SK-MEL-5 melanoma
[39] = tested on: SK-OV-3 ovarian
[40] = tested on: SN12C renal
[41] = tested on: SNB-19 CNS
[42] = tested on: SR leukemia
[43] = tested on: SW-620 colon
[44] = tested on: T-47D breast
[45] = tested on: TK-10 renal
[46] = tested on: U251 CNS
[47] = tested on: UACC-62 melanoma
[48] = tested on: UO-31 renal
[49] = tested on: RXF 393 renal
[50] = tested on: A498 renal
[51] = tested on: BT-549 breast
[52] = tested on: IGROV1 ovarian
[53] = tested on: MOLT-4 leukemia
[54] = tested on: SF-539 CNS
[55] = tested on: SK-MEL-2 melanoma
[56] = tested on: SNB-75 CNS
[57] = tested on: UACC-257 melanoma

## Cc1cc(N(CCOS(C)(=O)=O)CCOS(C)(=O)=O)ccc1C(=O)O
[1]
  GI50: > 100 µM
  TGI: > 100 µM
[2]
  GI50: > 100 µM
  TGI: > 100 µM
[3]
  GI50: 50 µM
  TGI: > 100 µM
[4]
  GI50: 43.7 µM
  TGI: > 100 µM
[5]
  GI50: 67.4 µM
  TGI: > 100 µM
[6]
  GI50: > 100 µM
  TGI: > 100 µM
[7]
  GI50: > 100 µM
  TGI: > 100 µM
[8]
  GI50: > 100 µM
  TGI: > 100 µM
[9]
  GI50: > 100 µM
  TGI: > 100 µM
[10]
  GI50: > 100 µM
  TGI: > 100 µM
[11]
  GI50: > 100 µM
  TGI: > 100 µM
[12]
  GI50: > 100 µM
  TGI: > 100 µM
[13]
  GI50: 37.1 µM
  TGI: > 100 µM
[14]
  GI50: > 100 µM
  TGI: > 100 µM
[15]
  GI50: > 100 µM
  TGI: > 100 µM
[16]
  GI50: > 100 µM
  TGI: > 100 µM
[17]
  GI50: > 100 µM
  TGI: > 100 µM
[18]
  GI50: 73.5 µM
  TGI: > 100 µM
[19]
  GI50: > 100 µM
  TGI: > 100 µM
[20]
  GI50: > 100 µM
  TGI: > 100 µM
[21]
  GI50: 87.4 µM
  TGI: > 100 µM
[22]
  GI50: > 100 µM
  TGI: > 100 µM
[23]
  GI50: > 100 µM
  TGI: > 100 µM
[24]
  GI50: > 100 µM
  TGI: > 100 µM
[25]
  GI50: 98.2 µM
  TGI: > 100 µM
[26]
  GI50: 87.6 µM
  TGI: > 100 µM
[27]
  GI50: 10.7 µM
  TGI: > 100 µM
[28]
  GI50: > 100 µM
  TGI: > 100 µM
[29]
  GI50: > 100 µM
  TGI: > 100 µM
[30]
  GI50: > 100 µM
  TGI: > 100 µM
[31]
  GI50: > 100 µM
  TGI: > 100 µM
[32]
  GI50: > 100 µM
  TGI: > 100 µM
[33]
  GI50: > 100 µM
  TGI: > 100 µM
[34]
  GI50: > 100 µM
  TGI: > 100 µM
[35]
  GI50: > 100 µM
  TGI: > 100 µM
[36]
  GI50: > 100 µM
  TGI: > 100 µM
[37]
  GI50: > 100 µM
  TGI: > 100 µM
[38]
  GI50: > 100 µM
  TGI: > 100 µM
[39]
  GI50: > 100 µM
  TGI: > 100 µM
[40]
  GI50: > 100 µM
  TGI: > 100 µM
[41]
  GI50: > 100 µM
  TGI: > 100 µM
[42]
  GI50: 40.7 µM
  TGI: > 100 µM
[43]
  GI50: > 100 µM
  TGI: > 100 µM
[44]
  GI50: > 100 µM
  TGI: > 100 µM
[45]
  GI50: > 100 µM
  TGI: > 100 µM
[46]
  GI50: > 100 µM
  TGI: > 100 µM
[47]
  GI50: > 100 µM
  TGI: > 100 µM
[48]
  GI50: > 100 µM
  TGI: > 100 µM

## CC1(C)COC(c2ccc(CC(Cc3ccc(C4(C(C)(C)C)OCC(C)(C)CO4)cc3)C(=O)O)cc2)(C(C)(C)C)OC1
[2]
  GI50: 2.06 µM
  TGI: > 100 µM
[3]
  GI50: 2.8 µM
  TGI: > 100 µM
[19]
  GI50: > 100 µM
  TGI: > 100 µM
[20]
  GI50: > 100 µM
  TGI: > 100 µM
[49]
  GI50: 2.86 µM
  TGI: > 100 µM
[37]
  GI50: > 100 µM
  TGI: > 100 µM
[41]
  GI50: 4.14 µM
  TGI: > 100 µM
[46]
  GI50: 3.03 µM
  TGI: > 100 µM

## CCCCC#Cc1c(I)n(C)c(=O)[nH]c1=O
[1]
  GI50: 16.5 µM
  TGI: 30.1 µM
[50]
  GI50: 18.7 µM
  TGI: 32.7 µM
[2]
  GI50: 19.3 µM
  TGI: 34.9 µM
[3]
  GI50: 1.71 µM
  TGI: 3.08 µM
[51]
  GI50: 1.94 µM
  TGI: 4.55 µM
[4]
  TGI: 0.0843 µM
[5]
  GI50: 1.74 µM
  TGI: 3.68 µM
[6]
  GI50: 1.93 µM
  TGI: 3.58 µM
[7]
  GI50: 4.42 µM
  TGI: 15.4 µM
[8]
  GI50: 15.7 µM
  TGI: 29.1 µM
[9]
  GI50: 1.58 µM
  TGI: 2.93 µM
[10]
  GI50: 1.7 µM
  TGI: 3.07 µM
[11]
  GI50: 1.52 µM
  TGI: 2.87 µM
[12]
  GI50: 16.9 µM
  TGI: 31 µM
[14]
  GI50: 2.61 µM
  TGI: 7.16 µM
[15]
  GI50: 2.27 µM
  TGI: 5.08 µM
[52]
  GI50: 1.55 µM
  TGI: 3.04 µM
[16]
  GI50: 1.82 µM
  TGI: 3.46 µM
[17]
  GI50: 16 µM
  TGI: 29.5 µM
[18]
  GI50: 1.62 µM
  TGI: 2.97 µM
[19]
  GI50: 2.13 µM
  TGI: 4.36 µM
[20]
  GI50: 1.94 µM
  TGI: 3.55 µM
[21]
  GI50: 9.6 µM
  TGI: 25.4 µM
[22]
  GI50: 2.06 µM
  TGI: 4.27 µM
[23]
  GI50: 1.64 µM
  TGI: 3.88 µM
[53]
  GI50: 2.73 µM
  TGI: 13.9 µM
[24]
  GI50: 14.4 µM
  TGI: 27.4 µM
[25]
  GI50: 2.14 µM
  TGI: 4.43 µM
[26]
  GI50: 20.1 µM
  TGI: 39.7 µM
[27]
  GI50: 1.56 µM
  TGI: 3.25 µM
[28]
  GI50: 6.48 µM
  TGI: 19.5 µM
[29]
  GI50: 1.54 µM
  TGI: 2.88 µM
[30]
  GI50: 1.76 µM
  TGI: 3.15 µM
[31]
  GI50: 6.38 µM
  TGI: 19.2 µM
[32]
  GI50: 3.36 µM
  TGI: 10.1 µM
[33]
  GI50: 12.8 µM
  TGI: 25.4 µM
[34]
  GI50: 2.37 µM
  TGI: 8.41 µM
[49]
  GI50: 2.6 µM
  TGI: 5.91 µM
[35]
  GI50: 2.68 µM
  TGI: 7.64 µM
[36]
  GI50: 10.6 µM
  TGI: 22.7 µM
[54]
  GI50: 15.8 µM
  TGI: 29.2 µM
[55]
  GI50: 1.93 µM
  TGI: 4.06 µM
[37]
  GI50: 1.75 µM
  TGI: 3.13 µM
[38]
  GI50: 16.4 µM
  TGI: 30 µM
[39]
  GI50: 20.3 µM
  TGI: 34.6 µM
[40]
  GI50: 13.2 µM
  TGI: 26.5 µM
[41]
  GI50: 14.6 µM
  TGI: 29.1 µM
[56]
  GI50: 12.3 µM
  TGI: 24.7 µM
[42]
  GI50: 0.895 µM
  TGI: 2.09 µM
[43]
  GI50: 1.66 µM
  TGI: 3.05 µM
[44]
  GI50: 1.7 µM
  TGI: 6.96 µM
[45]
  GI50: 4.76 µM
  TGI: 16 µM
[46]
  GI50: 2.42 µM
  TGI: 6.85 µM
[57]
  GI50: 2.46 µM
  TGI: 5.5 µM
[47]
  GI50: 3.39 µM
  TGI: 12.2 µM
[48]
  GI50: 2.59 µM
  TGI: 10.2 µM
